These results are taken from the NIST ThermoML archive (doi:10.1021/je500420g).

The nature of this data set: xn = mol fraction of the nth substance listed. Conditions: 100 kPa, Liquid, Vibrating tube method.

± gives the expanded uncertainty stated by the source.

By mass density is commonly meant the mass of a sample divided by its volume. On to `[I-].[Rb+]` [rubidium iodide (RbI)] + O, for which the mass density came to 1088.1 ± 0.2 kg/m3 (293.15 K, x1 = 0.01); 1259.7 ± 0.4 kg/m3 (293.15 K, x1 = 0.03); 1423.2 ± 0.5 kg/m3 (293.15 K, x1 = 0.05); 1084.2 ± 0.2 kg/m3 (303.15 K, x1 = 0.01); 1254.2 ± 0.4 kg/m3 (303.15 K, x1 = 0.03); 1416.3 ± 0.5 kg/m3 (303.15 K, x1 = 0.05). Besides, the mass density reads like this: (313.15 K, x1 = 0.01) 1079.8 ± 0.2 kg/m3; (313.15 K, x1 = 0.03) 1248.4 ± 0.4 kg/m3; (313.15 K, x1 = 0.05) 1409.2 ± 0.5 kg/m3; (323.15 K, x1 = 0.01) 1074.9 ± 0.3 kg/m3; (323.15 K, x1 = 0.03) 1242.3 ± 0.4 kg/m3; (323.15 K, x1 = 0.05) 1402 ± 0.5 kg/m3. The mass density is given as 1069.6 ± 0.3 kg/m3 (333.15 K, x1 = 0.01); 1235.9 ± 0.4 kg/m3 (333.15 K, x1 = 0.03); 1394.6 ± 0.5 kg/m3 (333.15 K, x1 = 0.05).

As to `[Br-].[Na+]` [sodium bromide] + O, the mass density (293.15 K, x1 = 0.01) is given as 1043.6 ± 0.2 kg/m3; the mass density (293.15 K, x1 = 0.03) came out at 1129.5 ± 0.3 kg/m3; the mass density (293.15 K, x1 = 0.05) is 1217.1 ± 0.3 kg/m3; the mass density (303.15 K, x1 = 0.01) came to 1040 ± 0.2 kg/m3; the mass density (303.15 K, x1 = 0.03) came to 1125.2 ± 0.3 kg/m3; the mass density (303.15 K, x1 = 0.05) came out at 1211.8 ± 0.3 kg/m3. The mass density (313.15 K, x1 = 0.01) was 1035.8 ± 0.2 kg/m3; the mass density (313.15 K, x1 = 0.03) amounted to 1120.4 ± 0.3 kg/m3; the mass density (313.15 K, x1 = 0.05) worked out at 1206.2 ± 0.3 kg/m3; the mass density (323.15 K, x1 = 0.01) came out at 1031.1 ± 0.2 kg/m3; the mass density (323.15 K, x1 = 0.03) was found to be 1115.1 ± 0.3 kg/m3; the mass density (323.15 K, x1 = 0.05) came out at 1200.2 ± 0.3 kg/m3. Moreover, the mass density is, setting by setting: (333.15 K, x1 = 0.01) 1026 ± 0.2 kg/m3; (333.15 K, x1 = 0.03) 1109.4 ± 0.3 kg/m3; (333.15 K, x1 = 0.05) 1194 ± 0.3 kg/m3.

Consider `[Cl-].[Na+]` [sodium chloride] + O, for which the mass density runs as follows: (293.15 K, x1 = 0.01) 1021.3 ± 0.2 kg/m3; (293.15 K, x1 = 0.03) 1066.2 ± 0.2 kg/m3; (293.15 K, x1 = 0.05) 1110.8 ± 0.3 kg/m3; (303.15 K, x1 = 0.01) 1018.3 ± 0.2 kg/m3; (303.15 K, x1 = 0.03) 1062.4 ± 0.2 kg/m3; (303.15 K, x1 = 0.05) 1106.2 ± 0.3 kg/m3. Moreover, the mass density reads like this: (313.15 K, x1 = 0.03) 1058 ± 0.2 kg/m3; (313.15 K, x1 = 0.05) 1101.6 ± 0.3 kg/m3; (323.15 K, x1 = 0.01) 1010.1 ± 0.2 kg/m3; (323.15 K, x1 = 0.03) 1052.4 ± 0.2 kg/m3; (323.15 K, x1 = 0.05) 1096.4 ± 0.3 kg/m3; (333.15 K, x1 = 0.01) 1005.1 ± 0.2 kg/m3. Besides, the mass density came out at 1047.6 ± 0.2 kg/m3 (333.15 K, x1 = 0.03) and 1090.9 ± 0.3 kg/m3 (333.15 K, x1 = 0.05).

Take `[F-].[Na+]` [sodium fluoride] + O: the mass density is, setting by setting: (293.15 K, x1 = 0.01) 1022.7 ± 0.2 kg/m3; (303.15 K, x1 = 0.01) 1019.7 ± 0.2 kg/m3; (313.15 K, x1 = 0.01) 1016 ± 0.2 kg/m3; (323.15 K, x1 = 0.01) 1011.5 ± 0.2 kg/m3; (333.15 K, x1 = 0.01) 1006.5 ± 0.2 kg/m3.

Consider `[I-].[Na+]` [sodium iodide] + O, for which the mass density runs as follows: (293.15 K, x1 = 0.01) 1061.7 ± 0.2 kg/m3; (293.15 K, x1 = 0.03) 1186.7 ± 0.3 kg/m3; (293.15 K, x1 = 0.05) 1309.5 ± 0.4 kg/m3; (303.15 K, x1 = 0.01) 1058.4 ± 0.2 kg/m3; (303.15 K, x1 = 0.03) 1181.8 ± 0.3 kg/m3; (303.15 K, x1 = 0.05) 1303.2 ± 0.4 kg/m3. The mass density by setting is: (313.15 K, x1 = 0.01) 1054.2 ± 0.2 kg/m3; (313.15 K, x1 = 0.03) 1176.3 ± 0.3 kg/m3; (313.15 K, x1 = 0.05) 1296.5 ± 0.4 kg/m3; (323.15 K, x1 = 0.01) 1049.5 ± 0.2 kg/m3; (323.15 K, x1 = 0.03) 1169.1 ± 0.3 kg/m3; (323.15 K, x1 = 0.05) 1289.5 ± 0.4 kg/m3. For the same molecule, the mass density is listed as 1044.1 ± 0.2 kg/m3 (333.15 K, x1 = 0.01); 1163.4 ± 0.3 kg/m3 (333.15 K, x1 = 0.03); 1282.2 ± 0.4 kg/m3 (333.15 K, x1 = 0.05).
